{
  "source": "paper PMC5848165",
  "about": "(Toxins, 2018)",
  "key": {"[1]": {"test_system": "chimera #2, Nav1.7 (Nav1.5-DIV-S3-S4)", "assay": "Whole-cell patch clamp, chimera #2 in HEK293 cells", "assay_type": "cell-based, human Nav1.7 / rat Nav1.5", "settings": "n = 5, −10 mV from −80 mV", "description": "Many animal toxins alter activation or inactivation of sodium channels by binding to the S3–S4 regions of channels, which are probably the external linkers or voltage sensors of sodium channels. α-Scorpion toxins slow down fast-inactivation of sodium channels by binding to the extracellular linker loop of DIVS3-S4 (neurotoxin site 3). Meanwhile, β-scorpion toxins that interact with DIIS3-S4 linker enhance the activation of sodium channels by trapping DII voltage sensor in an activated state. As Nav1.5 channel is resistant to the inhibition of JZTX-34, we investigated the binding site of JZTX-34 to Nav1.7 by constructing chimeric channels between Nav1.5 and Nav1.7. […]\n(§1) The HEK293T cells were maintained in standard culture conditions (5% CO2 and 37 °C). […] After culturing for 36–72 h, cells with obvious green fluorescence were selected for sodium currents recordings the internal solution for sodium currents recording that contained (in mM) 140 CsF, 5 NaCl, 10 HEPES, 3 Na2-ATP, and 10 EGTA. […]\n(§2) Sodium currents were recorded from DRG, HEK293, and ND cells by the whole-cell patch-clamp technique at 25 °C. […] Experiments date were acquired from whole-cell Axon 700B patch clamp amplifier (Molecular Devices, Sunnyvale, CA, USA) and analyzed by the program Clampfit10.0 (Molecular Devices, Sunnyvale, CA, USA) and Sigmaplot. […]"}, "[2]": {"test_system": "TTX-S sodium channels from rat DRG neurons", "assay": "Whole-cell patch clamp, TTX-S sodium currents in rat DRG neurons", "assay_type": "cell-based, rat (Sprague-Dawley)", "settings": "25 °C"}, "[3]": {"target": "T1, rNav1.3 (Rattus norvegicus, UniProt P08104)", "T1 construct": "expressed in transfected cells; host or cells: HEK293 (HEK293T) cells, transient", "T1 sequence (Q07699 19-218)": "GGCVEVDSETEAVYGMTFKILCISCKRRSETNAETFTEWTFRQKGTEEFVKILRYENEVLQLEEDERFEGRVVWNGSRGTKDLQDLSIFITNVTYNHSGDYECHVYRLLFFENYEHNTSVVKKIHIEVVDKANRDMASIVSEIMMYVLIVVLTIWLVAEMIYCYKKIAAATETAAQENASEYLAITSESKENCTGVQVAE", "T1 sequence (P08104 whole entry)": "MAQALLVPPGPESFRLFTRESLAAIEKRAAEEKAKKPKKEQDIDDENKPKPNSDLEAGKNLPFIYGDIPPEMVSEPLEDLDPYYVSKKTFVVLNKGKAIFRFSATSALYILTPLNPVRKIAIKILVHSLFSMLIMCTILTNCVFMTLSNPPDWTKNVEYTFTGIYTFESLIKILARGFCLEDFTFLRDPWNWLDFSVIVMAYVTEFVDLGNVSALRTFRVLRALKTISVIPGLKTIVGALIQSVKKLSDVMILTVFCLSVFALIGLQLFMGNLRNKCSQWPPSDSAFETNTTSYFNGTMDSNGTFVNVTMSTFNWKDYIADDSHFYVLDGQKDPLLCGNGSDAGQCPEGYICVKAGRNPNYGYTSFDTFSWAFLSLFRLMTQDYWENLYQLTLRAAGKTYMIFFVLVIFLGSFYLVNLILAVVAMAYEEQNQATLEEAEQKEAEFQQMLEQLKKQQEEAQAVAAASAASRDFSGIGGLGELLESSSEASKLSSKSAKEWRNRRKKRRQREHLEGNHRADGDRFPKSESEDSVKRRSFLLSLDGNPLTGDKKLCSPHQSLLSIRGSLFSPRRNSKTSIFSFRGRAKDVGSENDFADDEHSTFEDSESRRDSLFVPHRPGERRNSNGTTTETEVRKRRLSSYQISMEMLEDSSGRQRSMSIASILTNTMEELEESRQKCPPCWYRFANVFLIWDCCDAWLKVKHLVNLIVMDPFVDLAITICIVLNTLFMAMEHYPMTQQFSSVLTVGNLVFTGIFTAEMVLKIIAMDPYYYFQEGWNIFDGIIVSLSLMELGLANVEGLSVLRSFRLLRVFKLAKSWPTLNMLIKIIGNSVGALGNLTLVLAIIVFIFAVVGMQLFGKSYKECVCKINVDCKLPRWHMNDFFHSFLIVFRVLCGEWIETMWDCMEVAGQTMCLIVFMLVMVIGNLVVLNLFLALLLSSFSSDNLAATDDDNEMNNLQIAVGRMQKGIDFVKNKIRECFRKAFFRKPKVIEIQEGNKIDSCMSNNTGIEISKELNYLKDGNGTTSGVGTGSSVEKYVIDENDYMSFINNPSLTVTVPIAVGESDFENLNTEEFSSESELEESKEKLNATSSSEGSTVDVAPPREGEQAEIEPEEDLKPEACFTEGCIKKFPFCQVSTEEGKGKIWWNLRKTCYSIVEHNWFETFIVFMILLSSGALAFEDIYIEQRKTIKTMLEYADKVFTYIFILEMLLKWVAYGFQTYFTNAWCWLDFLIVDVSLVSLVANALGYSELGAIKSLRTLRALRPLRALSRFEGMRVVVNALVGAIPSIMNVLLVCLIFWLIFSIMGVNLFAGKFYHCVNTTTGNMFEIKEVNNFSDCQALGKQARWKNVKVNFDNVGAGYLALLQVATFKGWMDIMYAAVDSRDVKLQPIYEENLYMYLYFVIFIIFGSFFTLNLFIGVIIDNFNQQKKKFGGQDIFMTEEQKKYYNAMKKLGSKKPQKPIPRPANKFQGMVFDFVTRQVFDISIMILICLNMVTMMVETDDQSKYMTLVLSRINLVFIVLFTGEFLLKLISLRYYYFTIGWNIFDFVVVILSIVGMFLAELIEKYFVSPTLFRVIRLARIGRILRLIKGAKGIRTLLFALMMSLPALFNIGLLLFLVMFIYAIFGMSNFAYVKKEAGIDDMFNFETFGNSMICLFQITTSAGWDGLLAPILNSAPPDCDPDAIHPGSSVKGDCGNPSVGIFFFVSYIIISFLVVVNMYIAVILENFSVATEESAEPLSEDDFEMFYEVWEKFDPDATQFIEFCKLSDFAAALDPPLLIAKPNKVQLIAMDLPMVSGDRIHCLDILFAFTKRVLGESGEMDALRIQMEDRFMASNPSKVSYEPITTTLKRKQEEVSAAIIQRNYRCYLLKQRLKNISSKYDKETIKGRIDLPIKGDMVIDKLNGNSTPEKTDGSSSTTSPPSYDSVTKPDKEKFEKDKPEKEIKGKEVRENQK", "assay": "Whole-cell patch clamp, Nav1.3 in HEK293 cells", "assay_type": "cell-based", "settings": "−10 mV from −80 mV holding", "description": "Nine sodium channel subtypes have been identified and classified as TTX-S (Nav1.1–Nav1.4, Nav1.6, and Nav1.7) or TTX-R types (Nav1.5, Nav1.8, and Nav1.9). […] However, the subtype selectivity of JZTX-34 on the subtype of sodium channel is still unknown. In this work, effects of JZTX-34 on VGSC subtypes (Nav1.1–Nav1.8) were examined. Nav1.1–Nav1.7 were transfected into HEK293 cells and Nav1.8 currents were expressed in ND cells. Inward sodium currents were elicited by a 50 ms depolarizing potential to −10 mV from a holding potential of −80 mV every 5 s. […] No effects on other sodium channel subtypes were found (Nav1.1, Nav1.2, Nav1.4–Nav1.6, and Nav1.8) (Figure S2).\nFigure 2 Selectivity of JZTX-34 on sodium channel subtypes. […]\nas §1, §2"}},
  "note": "Residues, ends and D or L forms follow the SMILES beside them.",
  "data": [
    {"smiles": "CC(C)C[C@@H]1NC(=O)[C@H](Cc2c[nH]c3ccccc23)NC(=O)[C@H](CCC(=O)O)NC(=O)[C@H](CCCNC(=N)N)NC(=O)[C@@H](NC(=O)[C@H](C)N)CSSC[C@@H]2NC(=O)[C@@H]3CSSC[C@@H](C(=O)N[C@H](C(=O)N[C@@H](Cc4c[nH]c5ccccc45)C(=O)N[C@@H](CC(=O)O)C(=O)N[C@@H](Cc4c[nH]c5ccccc45)C(=O)N[C@H](C(=O)N[C@H](C(=O)O)C(C)C)[C@@H](C)O)C(C)C)NC(=O)[C@H](Cc4c[nH]cn4)NC(=O)[C@H](Cc4ccc(O)cc4)NC(=O)[C@@H]4CCCN4C(=O)[C@H](Cc4c[nH]c5ccccc45)NC(=O)[C@H](CCCCN)NC(=O)[C@H](CCCCN)NC(=O)[C@H](CCCNC(=N)N)NC(=O)[C@H](CSSC[C@H](NC(=O)CNC(=O)CNC1=O)C(=O)N[C@@H](CO)C(=O)N[C@@H](CCCCN)C(=O)N[C@@H](CC(=O)O)C(=O)N[C@@H](C)C(=O)N[C@@H](CC(=O)O)C(=O)N3)NC(=O)[C@H](CCC(=O)O)NC(=O)[C@H](CC(C)C)NC(=O)[C@H](Cc1c[nH]cn1)NC(=O)[C@H](C)NC2=O", "note": "[JZTX-34, Jingzhaotoxin-34] (HELM PEPTIDE1{A.C.R.E.W.L.G.G.C.S.K.D.A.D.C.C.A.H.L.E.C.R.K.K.W.P.Y.H.C.V.W.D.W.T.V}$PEPTIDE1,PEPTIDE1,2:R3-16:R3|PEPTIDE1,PEPTIDE1,9:R3-21:R3|PEPTIDE1,PEPTIDE1,15:R3-29:R3$$$V2.0; N-terminus and C-terminus assumed)", "values": [
      {"measurement": "inhibition of chimera #2 currents", "setting": "[1]; 1 µM", "result": "43.6 ± 4.5", "unit": "%"},
      {"measurement": "inhibition of chimera #2 currents", "setting": "[1]; 10 µM", "result": "76.3 ± 3.6", "unit": "%"},
      {"measurement": "inhibition of TTX-S sodium currents", "setting": "[2]; 1 µM synthetic JZTX-34, 50 ms depolarization to −10 mV from −80 mV", "result": "~ 81%"},
      {"measurement": "IC50", "setting": "[2]; synthetic toxin, Hill fit, n = 5, −10 mV from −80 mV holding", "result": 91, "unit": "nM"},
      {"measurement": "reduction of Nav1.3 currents", "setting": "[3]; 1 µM, mean ± S.E.", "result": "29.4 ± 4.6", "unit": "%"},
      {"measurement": "IC50", "setting": "[3]; Hill fit, n = 5", "result": 7.95, "unit": "µM"}
    ]}
  ]
}
